The values that follow come from patent US8906925B2, “Pyrido[4,3-B]indoles containing rigid moieties” (Medivation Technologies, Inc., priority 2008, dated 2014).

Assay [1] deals with human dopamine D2L receptor (Homo sapiens, UniProt P14416). Briefly: Dopamine D2L radioligand binding ([3H]Spiperone). To be noted: percent inhibition of specific binding, compound at 1 μM; for inhibition at 1 µM: read-out: Inhibition of ligand binding, Dopamine D2L. An excerpt: Non-specific binding was estimated in the presence of […] Haloperidol. Receptor proteins were filtered and washed, the filters were then counted to determine [^3H]Spiperone specifically bound. […] Biochemical assay results are presented as the percent inhibition of specific binding in Table 9.
human dopamine D2L receptor, sequence (P14416 whole entry): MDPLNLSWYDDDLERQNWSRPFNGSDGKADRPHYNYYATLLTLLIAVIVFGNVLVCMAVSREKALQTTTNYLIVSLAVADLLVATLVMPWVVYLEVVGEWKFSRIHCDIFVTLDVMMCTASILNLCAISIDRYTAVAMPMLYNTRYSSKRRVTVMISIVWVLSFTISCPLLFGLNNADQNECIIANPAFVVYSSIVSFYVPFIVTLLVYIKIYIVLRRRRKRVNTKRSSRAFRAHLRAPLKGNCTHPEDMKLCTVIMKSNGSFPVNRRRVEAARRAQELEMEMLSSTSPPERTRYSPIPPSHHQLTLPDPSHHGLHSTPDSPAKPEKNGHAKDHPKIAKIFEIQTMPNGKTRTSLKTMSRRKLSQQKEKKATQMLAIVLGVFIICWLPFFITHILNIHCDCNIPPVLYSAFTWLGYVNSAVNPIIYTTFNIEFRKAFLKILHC

Assay [2] has as its target human recombinant serotonin (5-Hydroxytryptamine) 5-HT7 receptor (Homo sapiens, UniProt P34969). Briefly: Serotonin 5-HT7 radioligand binding ([3H]LSD). To be noted: compound at 0.1 μM; for inhibition at 0.1 µM: read-out: Inhibition of ligand binding, Serotonin 5-HT7 (percent inhibition of specific binding). The source says:
Receptor proteins were filtered and washed, the filters were then counted to determine [^3H]LSD specifically bound.

For the next assay, the target named is histamine receptor H1 (Homo sapiens, UniProt P35367). Briefly: Histamine H1 radioligand binding ([3H]Pyrilamine). Particulars: read-out: Histamine Binding (1 μM) H1, percent inhibition of specific binding, 1 μM. An outline of the steps:
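Values are percent inhibition of specific [3H]pyrilamine (1.2 nM) binding with compounds at ≤1 μM (1% DMSO vehicle); 180 min incubation at 25 °C, pH 7.4 Tris buffer, on CHO-expressed human H1 receptor; 1 μM pyrilamine defined nonspecific binding, bound ligand counted after filtration.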

The target of assay [3] is T1, human recombinant serotonin (5-Hydroxytryptamine) 5-HT2C receptor (Homo sapiens, UniProt P28335).
T1 construct: expressed in transfected cells; host or cells: Chinese hamster ovary (CHO-K1) cells
T1 sequence (P28335 33-458): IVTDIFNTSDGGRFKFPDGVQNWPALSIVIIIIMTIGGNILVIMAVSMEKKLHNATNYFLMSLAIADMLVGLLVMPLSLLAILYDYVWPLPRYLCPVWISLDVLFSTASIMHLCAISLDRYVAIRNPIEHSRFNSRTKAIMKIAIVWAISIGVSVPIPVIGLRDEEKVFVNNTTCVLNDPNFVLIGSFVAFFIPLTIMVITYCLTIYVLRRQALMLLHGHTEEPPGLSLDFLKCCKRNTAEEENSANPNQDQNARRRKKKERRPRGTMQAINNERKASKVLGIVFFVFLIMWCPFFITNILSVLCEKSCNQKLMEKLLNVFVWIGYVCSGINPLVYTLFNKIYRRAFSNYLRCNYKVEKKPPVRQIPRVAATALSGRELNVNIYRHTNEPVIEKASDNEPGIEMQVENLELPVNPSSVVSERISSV
The assay can be described thus: Serotonin 5-HT2C radioligand binding ([3H]Mesulergine). Particulars: compound at 0.1 μM; for inhibition at 0.1 µM: read-out: Inhibition of ligand binding, Serotonin 5-HT2C (percent inhibition of specific binding). The method, then:
Compounds of the invention were incubated with 1 nM [^3H]Mesulergine for 60 min. at 25° C. Non-specific binding was estimated in the presence of 1 μM Mianserin. Receptor proteins were filtered and washed, the filters were then counted to determine [^3H]Mesulergine specifically bound. Compounds were screened at 1 μM or lower, using 1% DMSO as vehicle. Biochemical assay results are presented as the percent inhibition of specific binding in Table 10.

The target of assay [4] is T2, human recombinant serotonin (5-Hydroxytryptamine) 5-HT2A receptor (Homo sapiens, UniProt P28223).
T2 construct: expressed in transfected cells; host or cells: Chinese hamster ovary (CHO-K1) cells
T2 sequence (P28223 whole entry): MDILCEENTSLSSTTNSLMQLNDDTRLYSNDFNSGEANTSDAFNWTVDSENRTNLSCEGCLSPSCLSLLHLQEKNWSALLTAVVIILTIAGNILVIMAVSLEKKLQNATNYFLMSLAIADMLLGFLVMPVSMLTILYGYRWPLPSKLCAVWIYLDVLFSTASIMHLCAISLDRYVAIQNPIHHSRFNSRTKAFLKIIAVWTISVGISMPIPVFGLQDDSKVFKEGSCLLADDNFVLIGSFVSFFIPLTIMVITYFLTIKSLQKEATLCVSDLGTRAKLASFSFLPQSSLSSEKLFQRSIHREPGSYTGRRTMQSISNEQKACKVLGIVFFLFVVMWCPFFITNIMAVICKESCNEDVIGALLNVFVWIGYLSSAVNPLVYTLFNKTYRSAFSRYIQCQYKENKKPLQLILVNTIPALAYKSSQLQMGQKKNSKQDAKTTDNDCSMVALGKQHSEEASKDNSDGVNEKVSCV
The assay can be described thus: Serotonin 5-HT2A radioligand binding ([3H]Ketanserin). Particulars: for inhibition at 0.1 µM: read-out: Inhibition of ligand binding, Serotonin 5-HT2A (percent inhibition of specific binding), compound at 0.1 μM. The method, then:
Compounds of the invention were incubated with 0.5 nM [^3H]Ketanserin for 60 min. at 25° C. Non-specific binding was estimated in the presence of 1 μM Mianserin. Receptor proteins were filtered and washed, the filters were then counted to determine [^3H]Ketanserin specifically bound.

In assay [5] the target is T3, human recombinant serotonin (5-Hydroxytryptamine) 5-HT6 receptor (Homo sapiens, UniProt P50406).
T3 construct: expressed in transfected cells; host or cells: human HeLa cells
T3 sequence (P50406 whole entry): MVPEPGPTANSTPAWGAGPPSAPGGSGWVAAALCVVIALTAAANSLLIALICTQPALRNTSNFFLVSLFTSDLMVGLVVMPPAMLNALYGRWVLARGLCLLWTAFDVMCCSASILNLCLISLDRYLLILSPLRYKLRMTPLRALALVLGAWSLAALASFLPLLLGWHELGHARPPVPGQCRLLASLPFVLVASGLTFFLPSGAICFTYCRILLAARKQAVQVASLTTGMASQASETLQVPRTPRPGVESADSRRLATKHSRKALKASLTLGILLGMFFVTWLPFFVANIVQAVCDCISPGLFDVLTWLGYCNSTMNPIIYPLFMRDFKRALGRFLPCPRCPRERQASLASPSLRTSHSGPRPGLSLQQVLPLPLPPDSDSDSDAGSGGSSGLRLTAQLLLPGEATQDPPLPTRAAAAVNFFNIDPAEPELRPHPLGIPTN
The assay can be described thus: Serotonin 5-HT6 radioligand binding ([3H]LSD). Particulars: compound at 0.1 μM; for inhibition at 0.1 µM: read-out: Inhibition of ligand binding, Serotonin 5-HT6 (percent inhibition of specific binding). The protocol: Compounds of the invention were incubated with 1.5 nM [3H]Lysergic acid diethylamide (LSD) for 120 min. at 37° C. […] Receptor proteins were filtered and washed, the filters were then counted to determine [3H]LSD specifically bound. Compounds were screened at 1 μM or lower, using 1% DMSO as vehicle. Biochemical assay results are presented as the percent inhibition of specific binding in Table 10.

histamine receptor H1, sequence (P35367 whole entry): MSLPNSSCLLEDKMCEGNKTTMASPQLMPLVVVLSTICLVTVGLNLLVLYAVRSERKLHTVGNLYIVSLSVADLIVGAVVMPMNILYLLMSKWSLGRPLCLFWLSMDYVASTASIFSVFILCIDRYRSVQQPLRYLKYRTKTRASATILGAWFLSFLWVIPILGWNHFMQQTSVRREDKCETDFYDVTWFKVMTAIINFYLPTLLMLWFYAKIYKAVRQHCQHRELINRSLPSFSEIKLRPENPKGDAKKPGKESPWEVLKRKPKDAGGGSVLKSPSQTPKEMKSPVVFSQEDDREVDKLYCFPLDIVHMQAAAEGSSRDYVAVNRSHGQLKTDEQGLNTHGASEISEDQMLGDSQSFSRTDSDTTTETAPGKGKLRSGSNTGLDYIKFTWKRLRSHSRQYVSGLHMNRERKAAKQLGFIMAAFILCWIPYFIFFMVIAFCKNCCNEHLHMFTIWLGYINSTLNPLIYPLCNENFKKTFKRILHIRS
human recombinant serotonin (5-Hydroxytryptamine) 5-HT7 receptor, sequence (P34969 whole entry): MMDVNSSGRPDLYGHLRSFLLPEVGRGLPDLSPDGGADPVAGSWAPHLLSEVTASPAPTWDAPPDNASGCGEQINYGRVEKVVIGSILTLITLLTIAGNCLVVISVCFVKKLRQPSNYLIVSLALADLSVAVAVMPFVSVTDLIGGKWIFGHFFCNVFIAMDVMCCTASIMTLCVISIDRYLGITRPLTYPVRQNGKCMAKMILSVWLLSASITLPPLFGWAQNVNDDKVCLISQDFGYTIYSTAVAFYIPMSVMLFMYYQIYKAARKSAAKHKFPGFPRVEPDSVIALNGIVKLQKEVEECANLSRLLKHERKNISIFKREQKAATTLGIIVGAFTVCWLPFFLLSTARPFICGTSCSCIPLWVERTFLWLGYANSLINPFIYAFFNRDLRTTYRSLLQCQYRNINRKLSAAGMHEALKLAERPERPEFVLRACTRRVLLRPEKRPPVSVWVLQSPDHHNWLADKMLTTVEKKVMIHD

On to `C/C(=C\n1c2c(c3cc(C(F)(F)F)ccc31)CN(C)CC2)c1ccc(F)cc1` [Compound 268, (E)-5-(2-(4-fluorophenyl)prop-1-enyl)-2-methyl-8-(trifluoromethyl)-2,3,4,5-tetrahydro-1H-pyrido[4,3-b]indole], for which the figures for the inhibition at 1 µM (in assay [1]; on histamine receptor H1) were 98% and 53%, respectively. The inhibition at 0.1 µM worked out at 87% in assay [2], 86% in assay [3], 98% in assay [4] and 97% in assay [5].
As for `CC/C(=C/n1c2c(c3cc(Cl)ccc31)CN(C)CC2)c1ccncc1` [Compound 282, (Z)-8-chloro-2-methyl-5-(2-(pyridin-4-yl)but-1-enyl)-2,3,4,5-tetrahydro-1H-pyrido[4,3-b]indole], the inhibition at 1 µM in assay [1] came out at 57%; at histamine receptor H1 it was 31%. In addition, the inhibition at 0.1 µM was found to be 91% in assay [2], 94% in assay [3], 100% in assay [4] and 102% in assay [5].
Take `C/C(=C/n1c2c(c3cc(Cl)ccc31)CN(C)CC2)c1ccc(Cl)c(Cl)c1` [Compound 256, (Z)-8-chloro-5-(2-(3,4-dichlorophenyl)prop-1-enyl)-2-methyl-2,3,4,5-tetrahydro-1H-pyrido[4,3-b]indole]: the inhibition at 1 µM worked out at 34% in assay [1] and 92% at histamine receptor H1. Further, the inhibition at 0.1 µM is 85% in assay [2], 90% in assay [3], 100% in assay [4] and 96% in assay [5].
In the case of `CC(C)/C(=C/n1c2c(c3cc(Cl)ccc31)CN(C)CC2)c1ccncc1` [Compound 265, (Z)-8-chloro-2-methyl-5-(3-methyl-2-(pyridin-4-yl)but-1-enyl)-2,3,4,5-tetrahydro-1H-pyrido[4,3-b]indole], the inhibition at 1 µM is 73% in assay [1] and 22% on histamine receptor H1. Also, the inhibition at 0.1 µM worked out at 52% in assay [2], 89% in assay [3], 96% in assay [4] and 97% in assay [5].
With `C/C(=C\n1c2c(c3cccc(F)c31)CN(C)CC2)c1ccc(C)nc1` [Compound 260, (E)-6-fluoro-2-methyl-5-(2-(6-methylpyridin-3-yl)prop-1-enyl)-2,3,4,5-tetrahydro-1H-pyrido[4,3-b]indole], the inhibition at 1 µM was 9% in assay [1] and -19% at histamine receptor H1. The inhibition at 0.1 µM was 5% in assay [2], 29% in assay [3], 34% in assay [4] and -7% in assay [5].
As to `C/C(=C\n1c2c(c3cc(OC(F)(F)F)ccc31)CN(C)CC2)c1ccncc1` [Compound 263, (E)-2-methyl-5-(2-(pyridin-4-yl)prop-1-enyl)-8-(trifluoromethoxy)-2,3,4,5-tetrahydro-1H-pyrido[4,3-b]indole], the results for the inhibition at 1 µM (in assay [1]; at histamine receptor H1) were 89% and 8%, respectively. Further, the inhibition at 0.1 µM in assay [2] was found to be 15%; in assay [3], 18%; in assay [4] it was 64%; in assay [5] it was 99%.
On to `C/C(=C\n1c2c(c3cc(C)ccc31)CN(C)CC2)c1ccc(F)cc1F` [Compound 276, (E)-5-(2-(2,4-difluorophenyl)prop-1-enyl)-2,8-dimethyl-2,3,4,5-tetrahydro-1H-pyrido[4,3-b]indole], for which the inhibition at 1 µM in assay [1] amounted to 82%; on histamine receptor H1, 63%. The inhibition at 0.1 µM in assay [2] was 86%; in assay [3], 96%; in assay [4], 99%; in assay [5], 81%.
Consider `C/C(=C\n1c2c(c3cc(Cl)ccc31)CN(C)CC2)c1ccc(F)cc1F` [Compound 277, (E)-8-chloro-5-(2-(2,4-difluorophenyl)prop-1-enyl)-2-methyl-2,3,4,5-tetrahydro-1H-pyrido[4,3-b]indole], for which, in assay [1] (1 µM), the “Inhibition of ligand binding, Dopamine D2L” value is on record as 98%. The “Inhibition of ligand binding, Serotonin 5-HT7 (percent inhibition of specific binding)” value in assay [2] (0.1 µM) was 103%. In addition, the inhibition at 1 µM on histamine receptor H1 was determined as 95%. Moreover, the “Inhibition of ligand binding, Serotonin 5-HT2C (percent inhibition of specific binding)” value in assay [3] (0.1 µM) came out at 98%. The “Inhibition of ligand binding, Serotonin 5-HT2A (percent inhibition of specific binding)” value in assay [4] (compound at 0.1 μM, 0.1 µM) amounted to 100%. For the same compound, the “Inhibition of ligand binding, Serotonin 5-HT6 (percent inhibition of specific binding)” value in assay [5] (0.1 µM) turned out to be 98%.
Take `C/C(=C\n1c2c(c3cc(C(F)(F)F)ccc31)CN(C)CC2)c1ccncc1` [Compound 249, (E)-2-methyl-5-(2-(pyridin-4-yl)prop-1-enyl)-8-(trifluoromethyl)-2,3,4,5-tetrahydro-1H-pyrido[4,3-b]indole]: the inhibition at 1 µM in assay [1] came to 93%; at histamine receptor H1 it was 48%. The inhibition at 0.1 µM in assay [2] came out at 70%; in assay [3] it was 60%; in assay [4] it was 90%; in assay [5] it was 98%.
`C/C(=C\n1c2c(c3cc(F)c(F)cc31)CN(C)CC2)c1ccc(C)nc1` [Compound 255, (E)-7,8-difluoro-2-methyl-5-(2-(6-methylpyridin-3-yl)prop-1-enyl)-2,3,4,5-tetrahydro-1H-pyrido[4,3-b]indole]: the inhibition at 1 µM in assay [1] came to 29%; on histamine receptor H1 it was 11%. Moreover, the inhibition at 0.1 µM in assay [2] was found to be 54%; in assay [3], 69%; in assay [4], 81%; in assay [5] it was 4%.
In the case of `CCC(O)(Cn1c2c(c3cc(C)ccc31)CN(C)CC2)c1ccncc1` (stereo not drawn) [Compound 196, 1-(2,8-dimethyl-3,4-dihydro-1H-pyrido[4,3-b]indol-5(2H)-yl)-2-(pyridin-4-yl)butan-2-ol], the results for the inhibition at 1 µM (in assay [1]; on histamine receptor H1) were 9% and 19%, respectively. Moreover, the inhibition at 0.1 µM in assay [2] was 12%; in assay [3] it was 8%; in assay [4], 36%; in assay [5], 10%.
Consider `C/C(=C\n1c2c(c3ccc(F)cc31)CN(C)CC2)c1ccc(C)nc1` [Compound 261, (E)-7-fluoro-2-methyl-5-(2-(6-methylpyridin-3-yl)prop-1-enyl)-2,3,4,5-tetrahydro-1H-pyrido[4,3-b]indole], for which the inhibition at 1 µM was 28% in assay [1] and 11% at histamine receptor H1. For the same compound, the inhibition at 0.1 µM in assay [2] is 47%; in assay [3], 31%; in assay [4] it was 74%; in assay [5] it was 4%.
With `C/C(=C\n1c2c(c3cc(C(C)C)ccc31)CN(C)CC2)c1ccncc1` [Compound 267, (E)-8-isopropyl-2-methyl-5-(2-(pyridin-4-yl)prop-1-enyl)-2,3,4,5-tetrahydro-1H-pyrido[4,3-b]indole], the inhibition at 1 µM in assay [1] came out at 85%; at histamine receptor H1 it was 6%. Moreover, the inhibition at 0.1 µM amounted to 85% in assay [2], 54% in assay [3], 66% in assay [4] and 87% in assay [5].
With `C/C(=C\n1c2c(c3cc(F)ccc31)CN(C)CC2)c1ccc(C)nc1` [Compound 251, (E)-8-fluoro-2-methyl-5-(2-(6-methylpyridin-3-yl)prop-1-enyl)-2,3,4,5-tetrahydro-1H-pyrido[4,3-b]indole], the inhibition at 1 µM in assay [1] amounted to 25%; on histamine receptor H1, 15%. Further, the inhibition at 0.1 µM in assay [2] was determined as 74%; in assay [3] it was 77%; in assay [4] it was 85%; in assay [5], 8%.

What is called inhibition is the relative decrease from the control value, in per cent.
